Measured values published in patent US20160271263A1 (Novo Nordisk A/S, priority 2010, published 2016).
Numbered stars: 1 amine (or outer) side, 2 acyl side, 3 side chain; on linkers, the order of the positions; unused ones are H or OH. Side chains are listed from the residue outwards. Peptide text beside a SMILES is read from it. * marks the point of attachment. C18 diacid = O=C(O)CCCCCCCCCCCCCCCCC(=O)*; γGlu = O=C(O)[C@H](CCC(=O)[*:2])N[*:1]; AEEA = NCCOCCOCC(=O)O

Target: glucagon receptor (Homo sapiens, UniProt P47871)
Assay: cell-based
Description: The cells (14000 per well) were incubated (37° C., 5% CO2) overnight in 384-well plates. Next day the cells were loaded with a calcium responsive dye that only distributed into the cytoplasm. Probenecid, an inhibitor of the organic anion transporter, was added to prevent the dye from leaving the cell. A PDE inhibitor was added to prevent formatted cAMP from being degraded. […] End point data were collected after 6 minutes. An increase in intracellular cAMP was proportional to an increased in calcium concentrations in the cytoplasm. […] EC50-values were calculated in Prism5.

Chain of glucagon receptor (P47871 26-477): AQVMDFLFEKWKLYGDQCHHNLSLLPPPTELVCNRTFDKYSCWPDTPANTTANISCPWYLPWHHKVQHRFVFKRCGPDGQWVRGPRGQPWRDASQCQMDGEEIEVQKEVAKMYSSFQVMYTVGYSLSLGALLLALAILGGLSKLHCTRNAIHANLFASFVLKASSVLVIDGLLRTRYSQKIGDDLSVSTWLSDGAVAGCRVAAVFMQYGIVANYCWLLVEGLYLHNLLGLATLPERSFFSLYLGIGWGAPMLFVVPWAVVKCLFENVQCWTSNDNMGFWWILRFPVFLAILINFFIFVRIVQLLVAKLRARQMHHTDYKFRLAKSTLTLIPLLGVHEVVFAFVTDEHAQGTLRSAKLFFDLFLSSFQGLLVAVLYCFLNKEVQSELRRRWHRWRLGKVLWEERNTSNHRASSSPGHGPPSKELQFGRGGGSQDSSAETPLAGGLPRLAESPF

Row | SMILES | EC50 [nM]
1 | CSCC[C@H](NC(=O)[C@H](CC(C)C)NC(=O)[C@H](Cc1c[nH]c2ccccc12)NC(=O)[C@H](CCC(N)=O)NC(=O)[C@@H](NC(=O)[C@H](Cc1ccccc1)NC(=O)[C@H](CC(=O)O)NC(=O)[C@H](CCCNC(=N)N)NC(=O)[C@H](C)NC(=O)[C@H](CCCNC(=N)N)NC(=O)[C@H](CCC(N)=O)NC(=O)[C@H](CCC(=O)O)NC(=O)[C@H](CC(=O)O)NC(=O)[C@H](CC(C)C)NC(=O)[C@H](Cc1ccc(O)cc1)NC(=O)[C@H](CCCCN)NC(=O)[C@H](CO)NC(=O)[C@H](Cc1ccc(O)cc1)NC(=O)[C@H](CC(=O)O)NC(=O)[C@H](CO)NC(=O)[C@@H](NC(=O)[C@H](Cc1ccccc1)NC(=O)[C@@H](NC(=O)CNC(=O)[C@H](CCC(N)=O)NC(=O)[C@H](CO)NC(=O)[C@@H](N)Cc1c[nH]cn1)[C@@H](C)O)[C@@H](C)O)C(C)C)C(=O)N[C@@H](CC(N)=O)C(=O)N[C@H](C(=O)N[C@@H](CCCCNC(=O)COCCOCCNC(=O)COCCOCCNC(=O)CC[C@H](NC(=O)CCCCCCCCCCCCCCCCC(=O)O)C(=O)O)C(N)=O)[C@@H](C)O [Example 26, N^α ([Glu^16,Gln^17,Arg^20] Glucagonyl) N^ε-([2-[2-[2-[[2-[2-[2-[[(4S)-5-hydroxy-4-[(18-hydroxy-18-oxooctadecanoyl)amino]-5-oxopentanoyl]amino]ethoxy]ethoxy]acetyl]amino]ethoxy]ethoxy]acetyl]) Lysinyl amide] (H-HSQGTFTSDYSKYLDEQRARDFVQWLMNTK([AEEA-AEEA-γGlu-C18 diacid])-NH2; N-terminus assumed) | 0.192
2 | CSCC[C@H](NC(=O)[C@H](CC(C)C)NC(=O)[C@H](Cc1c[nH]c2ccccc12)NC(=O)[C@H](CCC(N)=O)NC(=O)[C@@H](NC(=O)[C@H](Cc1ccccc1)NC(=O)[C@H](CC(=O)O)NC(=O)[C@H](CCCNC(=N)N)NC(=O)[C@H](C)NC(=O)[C@H](C)NC(=O)[C@H](CCC(N)=O)NC(=O)[C@H](CCC(=O)O)NC(=O)[C@H](CC(=O)O)NC(=O)[C@H](CC(C)C)NC(=O)[C@H](Cc1ccc(O)cc1)NC(=O)[C@H](CCCCN)NC(=O)[C@H](CO)NC(=O)[C@H](Cc1ccc(O)cc1)NC(=O)[C@H](CC(=O)O)NC(=O)[C@H](CO)NC(=O)[C@@H](NC(=O)[C@H](Cc1ccccc1)NC(=O)[C@@H](NC(=O)CNC(=O)[C@H](CCC(N)=O)NC(=O)[C@H](CO)NC(=O)[C@@H](N)Cc1c[nH]cn1)[C@@H](C)O)[C@@H](C)O)C(C)C)C(=O)N[C@@H](CC(N)=O)C(=O)N[C@H](C(=O)N[C@@H](CCCCNC(=O)COCCOCCNC(=O)COCCOCCNC(=O)CC[C@H](NC(=O)CCCCCCCCCCCCCCCCC(=O)O)C(=O)O)C(N)=O)[C@@H](C)O [Example 27, N^α ([Glu^16,Gln^17,Ala^18,Arg^20]Glucagonyl) N^ε-([2-[2-[2-[[2-[2-[2-[[(4S)-5-hydroxy-4-[(18-hydroxy-18-oxooctadecanoyl)amino]-5-oxopentanoyl]amino]ethoxy]ethoxy]acetyl]amino]ethoxy]ethoxy]acetyl]) Lysinyl amide] (H-HSQGTFTSDYSKYLDEQAARDFVQWLMNTK([AEEA-AEEA-γGlu-C18 diacid])-NH2; N-terminus assumed) | 0.406
